Test system: Na^+,K^+-ATPase
Assay: Na^+,K^+-ATPase inhibition rate (potassium ion concentration antagonist type), molybdate colorimetry
Format: biochemical
Conditions: 1 µM
Experimental: It is known that ouabain inhibits the enzyme activity of Na^+,K^+-ATPase. As such the Na^+,K^+-ATPase inhibitory activity of the various substances used as antigens in Example 4, Part B was examined to investigate the correlation between that inhibitory activity and reactivity with the monoclonal antibody of the present invention.
1.35 ml of TES buffer (80 mM TES, 200 mM NaCl, 9 mM MgSO4·7H2O and 10 mM EGTA adjusted to pH 7.4 with NaOH), 0.27 ml of 0.2% ODG (octyl-D-glucoside), 0.27 ml of 10^-5 M sample (10^-6 M during reaction), and 0.44 ml of distilled water were added to a plastic test tube which was then placed in an incubator at 25°C. 0.27 ml of 1 mM or 100 mM KCl and 50 µl of ATPase solution (stock solution, in which 5 units of […] (Sigma) were dissolved in 2 ml of 10 mM TES (pH 7.4) diluted 2.5 times with 10 mM TES (pH 7.4) as necessary) were added followed by incubation for 5 - 10 minutes at 25°C. Next, the reaction was started by addition of 50 µl of ATP solution (71 mg of ATP dissolved in 5 ml of 10 mM TES (pH 7.4) (Sigma)).
The reaction was allowed to proceed at 25°C for 30 minutes in the case of using 1 mM KCl (0.1 mM in the reaction solution), and for 10 minutes in the case of using 100 mM KCl (10 mM in the reaction solution). Next, 0.03 ml of 1% Triton™ X-100 solution (in distilled water) and 0.3 ml of 2.5% AmM solution (5 g of (NH4)6Mo7O24·4H2O dissolved in 6 N H2SO4 and brought to a volume of 200 ml) were mixed immediately prior to use (for a total of 0.33 ml) and then added to the reaction solution followed by incubation for 10 minutes at 25°C to stop the reaction and develop color. The absorbance of the reaction solution was then measured at 660 nm and the Na^+,K^+-ATPase inhibition rate (%) was calculated according to the following formula. Na^+ ,K^+ -ATPase Inhibition Rate (%) = [(Ao -Aw )/Ao ] × 100 [formula] Ao: Na^+,K^+-ATPase activity when sample not added Aw: Na^+,K^+-ATPase activity when sample added

[1] = 0.1 mM K^+ in the reaction solution, sample 10^-6 M during reaction, 30 minutes at 25°C
[2] = 10 mM K^+ in the reaction solution, sample 10^-6 M during reaction, 10 minutes at 25°C

SMILES	(Na^+,K^+-ATPase Inhibition) Rate (%) 0.1 mM K^+ [1]	(Na^+,K^+-ATPase Inhibition) Rate (%) 10 mM K^+ [2]	(Na^+,K^+-ATPase Inhibition) Rate (%) 0.1 mM K^+	(Na^+,K^+-ATPase Inhibition) Rate (%) 10 mM K^+
C[C@H]1CCCC[C@H]1O (relative stereo) [cis-2-Methylcyclohexanol]	-2%	2%		
O=C1C=CCO1 [2(5H)-Furanone]	6%	-5%		
CCCCC/C=C\C/C=C\C/C=C\C/C=C\CCCC(=O)O [Arachidonic acid]	-5%	-2%		
C[C@H](CCC(=O)O)[C@H]1CC[C@H]2[C@@H]3[C@H](O)C[C@@H]4C[C@H](O)CC[C@]4(C)[C@H]3C[C@H](O)[C@]12C [Cholic acid]	2%	-3%		
C[C@]12C[C@H](O)[C@H]3[C@@H](CCC4=CC(=O)CC[C@@]43C)[C@@H]1CC[C@@H]2C(=O)CO [Corticosterone]	-4%	1%		
OC1CCCCC1 [Cyclohexanol]	-3%	0.4%		
C[C@]12CC[C@H](O)C[C@H]1CC[C@@H]1[C@@H]2CC[C@]2(C)[C@@H](C3=CC(=O)OC3)CC[C@]12O [Digitoxigenin]			44%	17%
C[C@H]1O[C@@H](O[C@H]2[C@@H](O)C[C@H](O[C@H]3[C@@H](O)C[C@H](O[C@H]4CC[C@@]5(C)[C@H](CC[C@@H]6[C@@H]5CC[C@]5(C)[C@@H](C7=CC(=O)OC7)CC[C@]65O)C4)O[C@@H]3C)O[C@@H]2C)C[C@H](O)[C@@H]1O [Digitoxin]	41%	11%		
C[C@H]1O[C@@H](O[C@H]2[C@@H](O)C[C@H](O[C@H]3[C@@H](O)C[C@H](O[C@H]4CC[C@@]5(C)[C@H](CC[C@@H]6[C@@H]5C[C@@H](O)[C@]5(C)[C@@H](C7=CC(=O)OC7)CC[C@]65O)C4)O[C@@H]3C)O[C@@H]2C)C[C@H](O)[C@@H]1O [Digoxin]			45%	18%
C[C@]12CCC(=O)C=C1CC[C@@H]1[C@@H]2[C@@H](O)C[C@@]2(C)[C@H]1CC[C@]2(O)C(=O)CO [Hydrocortisone]	-3%	-1%		
C[C@@H]1OC(O)[C@H](O)[C@H](O)[C@H]1O (stereo partly drawn) [L-Rhamnose]	-2%	-4%		
CCCCC/C=C\C/C=C\CCCCCCCC(=O)O [Linoleic acid]	-7%	-5%		
CCCCCCCCCCCCCCCCOC[C@@H](O)COP(=O)([O-])OCC[N+](C)(C)C [LisoPAF, L-α-lysophosphatidylcholine-γ-O-hexadecyl]	-2%	0.4%		
C[C@]12C[C@@H](O)[C@H]3[C@@H](CC[C@]4(O)C[C@@H](O)C[C@@H](O)[C@]34CO)[C@@]1(O)CC[C@@H]2C1=CC(=O)OC1 [Ouabagenin]	44%	6%		
C[C@@H]1O[C@@H](O[C@H]2C[C@@H](O)[C@]3(CO)[C@H]4[C@H](O)C[C@]5(C)[C@@H](C6=CC(=O)OC6)CC[C@]5(O)[C@@H]4CC[C@]3(O)C2)[C@H](O)[C@H](O)[C@H]1O [Ouabain]	41%	18%		
CCCCCCCCCCCCCCCCOC[C@H](COP(=O)([O-])OCC[N+](C)(C)C)OC(C)=O [PAF, L-d-phosphatidylcholine-β-aceyl-γ-O-hexadecyl]	-3%	1%		
CC(=O)[C@H]1CC[C@H]2[C@@H]3CCC4=CC(=O)CC[C@]4(C)[C@H]3CC[C@]12C [Progesterone]	3%	5%		
C[C@]12CC[C@H](O)C[C@@H]1CC[C@@H]1[C@@H]2CC[C@]2(C)[C@@H](C3=CC(=O)OC3)CC[C@]12O [Uzarigenin]			42%	6%
C1CC[C@H]2CCC[C@H]2C1 [cis-Hydrindane]	-1%	0.5%		
C[C@]12CCC(=O)C=C1CC[C@@H]1[C@@H]2[C@@H](O)C[C@]2(C=O)[C@@H](C(=O)CO)CC[C@@H]12 [α-Aldosterone]	1%	-11%		

— EP0517918B1, “MONOCLONAL ANTIBODY AGAINST CARDIAC GLYCOSIDE AND UTILIZATION THEREOF” (SUNTORY LIMITED, priority 1990, dated 1992)
